Assay results: ChEMBL document CHEMBL3352727, “Synthesis, biological evaluation and docking analysis of 3-methyl-1-phenylchromeno[4,3-c]pyrazol-4(1H)-ones as potential cyclooxygenase-2 (COX-2) inhibitors” (Bioorg Med Chem Lett, 2014)

What was measured:
[1] = target: T1, Prostaglandin G/H synthase 1 (Ovis aries) (UniProt P05979); assay: Inhibition of ovine COX1 assessed as reduction in PGF2alpha formation at 10 uM incubated for 18 hrs by enzyme immunoassay
T1 sequence (whole entry): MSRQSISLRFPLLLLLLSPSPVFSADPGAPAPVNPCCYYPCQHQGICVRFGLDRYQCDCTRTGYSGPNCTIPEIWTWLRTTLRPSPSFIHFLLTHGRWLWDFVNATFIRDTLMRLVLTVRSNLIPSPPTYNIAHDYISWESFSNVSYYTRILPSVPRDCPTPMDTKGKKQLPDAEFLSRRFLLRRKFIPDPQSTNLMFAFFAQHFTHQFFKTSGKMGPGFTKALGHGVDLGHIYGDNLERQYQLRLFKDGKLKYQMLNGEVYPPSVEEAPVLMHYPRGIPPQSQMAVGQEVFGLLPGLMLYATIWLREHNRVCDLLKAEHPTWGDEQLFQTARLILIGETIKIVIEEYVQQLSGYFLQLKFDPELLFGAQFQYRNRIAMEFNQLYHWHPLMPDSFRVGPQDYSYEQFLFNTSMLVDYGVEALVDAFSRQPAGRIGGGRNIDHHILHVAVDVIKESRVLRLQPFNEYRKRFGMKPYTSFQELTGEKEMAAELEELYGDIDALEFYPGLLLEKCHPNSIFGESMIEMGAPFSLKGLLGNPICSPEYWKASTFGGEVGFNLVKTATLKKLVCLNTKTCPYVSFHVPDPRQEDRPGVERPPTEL

Rattus norvegicus [2] = assay: Anti-inflammatory activity in Sprague-Dawley rat model of carrageenan-induced paw edema assessed as inhibition of paw edema volume at 150 umol/kg, po dosed 1 hr before carrageenan challenge and measured 1 hr post carrageenan challenge; type: functional
[3] = target: T2, Prostaglandin G/H synthase 1 (Ovis aries, UniProt P05979); assay: Inhibition of ovine COX1 assessed as reduction in PGF2alpha formation incubated for 18 hrs by enzyme immunoassay
T2 sequence (P05979 whole entry): T1 sequence (whole entry)

Rattus norvegicus [4] = assay: Anti-inflammatory activity in Sprague-Dawley rat model of carrageenan-induced paw edema assessed as inhibition of paw edema volume at 150 umol/kg, po dosed 1 hr before carrageenan challenge and measured 3 hrs post carrageenan challenge; type: functional
Rattus norvegicus [5] = assay: Anti-inflammatory activity in Sprague-Dawley rat model of carrageenan-induced paw edema assessed as inhibition of paw edema volume at 150 umol/kg, po dosed 1 hr before carrageenan challenge and measured 5 hrs post carrageenan challenge; type: functional

`Cc1ccc(C)c(-n2nc(C)c3c(=O)oc4ccccc4c32)c1` gave an inhibition [1] of 21.3%.
With `Cc1nn(-c2ccccc2C(F)(F)F)c2c1c(=O)oc1ccccc12` the inhibition [1] was 34.6%.
With `COc1ccc2c(c1)oc(=O)c1c(C)nn(-c3ccc(F)cc3)c12` the inhibition [1] was 34.8%.
Work on `Cc1nn(-c2ccc(C(F)(F)F)cc2)c2c1c(=O)oc1ccc(Cl)cc12` yielded an inhibition in vivo at 150 µmol/kg (Rattus norvegicus [2]) of 23.3%, an IC50 [3] of over 30 µM and an inhibition in vivo at 150 µmol/kg (Rattus norvegicus [4]) of 36.1%. For the same compound, the inhibition [1] was 33.2% and the inhibition in vivo at 150 µmol/kg (Rattus norvegicus [5]) was 57.8%.
`Cc1nn(-c2ccc(C(F)(F)F)cc2)c2c1c(=O)oc1ccccc12` gave an inhibition in vivo at 150 µmol/kg (Rattus norvegicus [2]) of 27.6%, an IC50 [3] of over 30 µM and an inhibition in vivo at 150 µmol/kg (Rattus norvegicus [4]) of 40.4%. It also gave an inhibition [1] of 34.3% and an inhibition in vivo at 150 µmol/kg (Rattus norvegicus [5]) of 59.9%.
With `Cc1ccc(C)c(-n2nc(C)c3c(=O)oc4ccc(Cl)cc4c32)c1` the inhibition [1] was 39.2%.
In the case of `Cc1nn(-c2ccc(Br)cc2)c2c1c(=O)oc1ccccc12`, the inhibition in vivo at 150 µmol/kg (Rattus norvegicus [2]) is reported as 14.2%, the IC50 [3] is reported as over 30 µM and the inhibition in vivo at 150 µmol/kg (Rattus norvegicus [4]) is reported as 27.8%. The inhibition [1] was 47.5% and the inhibition in vivo at 150 µmol/kg (Rattus norvegicus [5]) was 37%.
Compound `Cc1ccc(-c2cc(C(F)(F)F)nn2-c2ccc(S(N)(=O)=O)cc2)cc1` [CELECOXIB] has an inhibition in vivo at 150 µmol/kg (Rattus norvegicus [2]) of 24.4%, an inhibition in vivo at 150 µmol/kg (Rattus norvegicus [4]) of 38.8% and an inhibition in vivo at 150 µmol/kg (Rattus norvegicus [5]) of 51.4%.
For `COc1ccc2c(c1)oc(=O)c1c(C)nn(-c3ccccc3)c12`, the inhibition [1] was 43.2%.
Compound `COc1ccc2c(c1)oc(=O)c1c(C)nn(-c3ccc(C(F)(F)F)cc3)c12` has an inhibition in vivo at 150 µmol/kg (Rattus norvegicus [2]) of 21.7%, an IC50 [3] of over 30 µM and an inhibition in vivo at 150 µmol/kg (Rattus norvegicus [4]) of 32.2%. For the same compound, the inhibition [1] was 33.2% and the inhibition in vivo at 150 µmol/kg (Rattus norvegicus [5]) was 43.7%.
`Cc1nn(-c2ccc(Cl)cc2Cl)c2c1c(=O)oc1ccccc12` was tested, and the inhibition [1] was 30.5%.
Compound `COc1ccc2c(c1)oc(=O)c1c(C)nn(-c3ccc(Br)cc3)c12` has an inhibition [1] of 27.3%.
Work on `Cc1nn(-c2ccc(F)cc2)c2c1c(=O)oc1ccccc12` yielded an inhibition in vivo at 150 µmol/kg (Rattus norvegicus [2]) of 24.6%, an IC50 [3] of over 30 µM and an inhibition in vivo at 150 µmol/kg (Rattus norvegicus [4]) of 39.8%. For the same compound, the inhibition [1] was 28.3% and the inhibition in vivo at 150 µmol/kg (Rattus norvegicus [5]) was 55.6%.
`COc1ccc2c(c1)oc(=O)c1c(C)nn(-c3cc(C)ccc3C)c12` gave an inhibition [1] of 39.5%.
Work on `COc1ccc2c(c1)oc(=O)c1c(C)nn(-c3ccccc3C(F)(F)F)c12` yielded an inhibition [1] of 38.2%.
`Cc1nn(-c2ccccc2)c2c1c(=O)oc1ccc(Cl)cc12` gave an inhibition [1] of 43.8%.
`Cc1nn(-c2ccccc2)c2c1c(=O)oc1ccc(Br)cc12` was tested, and the inhibition [1] was 54.2%.
Compound `COc1ccc2c(c1)oc(=O)c1c(C)nn(-c3ccc(Cl)cc3)c12` has an inhibition [1] of 34.8%.
For `Cc1nn(-c2ccc(Cl)cc2)c2c1c(=O)oc1ccccc12`, the inhibition in vivo at 150 µmol/kg (Rattus norvegicus [2]) was 21.3%, the IC50 [3] was over 30 µM and the inhibition in vivo at 150 µmol/kg (Rattus norvegicus [4]) was 35.2%. For the same compound, the inhibition [1] was 43.7% and the inhibition in vivo at 150 µmol/kg (Rattus norvegicus [5]) was 49.4%.
`Cc1nn(-c2ccccc2)c2c1c(=O)oc1ccccc12` gave an inhibition in vivo at 150 µmol/kg (Rattus norvegicus [2]) of 19.3%, an IC50 [3] of over 30 µM and an inhibition in vivo at 150 µmol/kg (Rattus norvegicus [4]) of 30.1%. The inhibition [1] was 48.1% and the inhibition in vivo at 150 µmol/kg (Rattus norvegicus [5]) was 38.2%.
